In patent US4228285A, “14-Hydroxy-6-oxamorphinans and 14-hydroxy-6-oxaisomorphinans” (priority 1979, dated 1980):
Where two headings read alike, the source gives them in different places.

What was measured:
[1] = format: in vivo; settings: for agonist potency relative to butorphanol / agonist potency relative to morphine sulfate: mice; for agonist potency relative to butorphanol: vs butorphanol; for agonist potency relative to morphine sulfate: vs morphine sulfate
[2] = oxymorphone-induced Straub tail test (oxymorphone antagonist activity); format: in vivo; settings: for antagonist potency relative to butorphanol, Straub tail test: vs butorphanol
Excerpt: (§1) Table 2 compares the oxymorphone and morphine antagonist activity of two of the preferred embodiments of this invention with the antagonist activity of butorphanol, in the standard oxymorphone-induced Straub tail test and the morphine antagonist rat tail flick test. In the Straub tail test, subcutaneously, BL-5951 and BL-5961 were about 5 times and about 1.6 times, respectively, as potent as butorphanol. Orally, they were about 55 times and about 1.7 times, respectively, as potent as butorphanol.

[3] = morphine antagonist rat tail flick test; format: in vivo; settings: subcutaneous; for ED50: sc
Excerpt: as §1

[4] = format: in vivo; settings: subcutaneous
[5] = oral, read-out: Antagonist Activity ED50, Oxymorphone-induced Straub Tail, PO
[6] = sc, subcutaneous, read-out: Antagonist Activity ED50, Oxymorphone-induced Straub Tail, SC

Structure (SMILES) | agonist potency relative to butorphanol ([1]; subcutaneous) | agonist potency relative to morphine sulfate ([1]; subcutaneous) | Agonist Activity ED50, Mice (SC) ([1]; subcutaneous) [mg/kg] | antagonist potency relative to butorphanol, Straub tail test ([2]; oral) | ED50 [2, 5] [mg/kg] | ED50 [2, 6] [mg/kg] | antagonist potency relative to butorphanol, Straub tail test ([2]; subcutaneous) | ED50 [3] [mg/kg] | antagonist potency relative to butorphanol, rat tail flick test ([3]; vs butorphanol) | Agonist Activity ED50, Mice (PO) ([1]; oral) [mg/kg] | Agonist Activity ED50, Rats (SC) [4] [mg/kg] | agonist potency relative to butorphanol ([1]; oral) | agonist potency relative to morphine sulfate ([1]; oral) | agonist potency relative to butorphanol ([4]; rats, vs butorphanol) | agonist potency relative to morphine sulfate ([4]; rats, vs morphine sulfate) | antagonist potency relative to butorphanol, rat tail flick test (in words) ([3]; vs butorphanol)
CN1CC[C@]23COC(C)(C)C[C@@]2(O)[C@H]1Cc1ccc(O)cc13 (racemic) [BL-6021, 3,14β-Dihydroxy-7,7,17-trimethyl-6-oxamorphinan] | about 1.4 times | about 7 times | 0.037 | – | – | – | – | – | – | – | – | – | – | – | – | –
Oc1ccc2c(c1)[C@]13CCN(CC4CC4)[C@H](C2)[C@]1(O)CCOC3 (racemic) [BL-5951, 17-Cyclopropylmethyl-3,14β-dihydroxy-6-oxamorphinan] | – | – | – | about 55 times | ~1 | ~0.2 | about 5 times | ~0.09 | about 4.8 times | – | – | – | – | – | – | –
Oc1ccc2c(c1)[C@@]13CCCC[C@@]1(O)[C@@H](C2)N(CC1CCC1)CC3 [butorphanol, reference compound] | – | – | 0.051 | – | 55 | 0.98 | – | 0.43 | – | 5.6 | 0.040 | – | – | – | – | –
Oc1ccc2c(c1)[C@]13CCN(CC4CCC4)[C@H](C2)[C@]1(O)CCOC3 (racemic) [BL-5961, 17-Cyclobutylmethyl-3,14β-dihydroxy-6-oxamorphinan] | about 1.4 times | about 7 times | 0.037 | about 1.7 times | ~32 | 0.61 | about 1.6 times | ~0.4 | – | 2.2 | 0.041 | about 2.5 times | about 1.4 times | about equipotent | about 4 times | about equipotent
